The results in this text go back to US11939314B2, “Quinolin-2-one derivatives” (MERCK PATENT GMBH, priority 2016, dated 2024).

Structures can show the parent of a compound that is named as a salt.

Broadly, the IC50 is the concentration that gives 50% inhibition.

The target in one assay is T1, PDGFRalpha(V561D) (Homo sapiens, UniProt P16234, V561D).
T1 construct: recombinant human PDGFRalpha, amino acids 550end containing the V561 D mutation; 6His (N)
The experiment in a line: PDGFRalpha(V561D) assay. It counts as biochemical. The conditions noted are these: recombinant human PDGFRalpha aa 550-end, 200 μM ATP, 1.4E-06 means 1.4×10^−6, read-out: Inhibition (IC50) of PDGFRα (V561D). Put shortly:
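Radiometric filter-binding assay: substrate phosphorylation by recombinant N-His-tagged human PDGFRα 550-end V561D was quenched with 3% phosphoric acid after 40 min at room temperature, then counted.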

The target of the next assay is T2, c-Kit(V654A) (Homo sapiens, UniProt P10721, V654A).
T2 construct: amino acids 544-end containing the V654A mutation; GST (N)
T2 sequence (P10721 544-976 V654A): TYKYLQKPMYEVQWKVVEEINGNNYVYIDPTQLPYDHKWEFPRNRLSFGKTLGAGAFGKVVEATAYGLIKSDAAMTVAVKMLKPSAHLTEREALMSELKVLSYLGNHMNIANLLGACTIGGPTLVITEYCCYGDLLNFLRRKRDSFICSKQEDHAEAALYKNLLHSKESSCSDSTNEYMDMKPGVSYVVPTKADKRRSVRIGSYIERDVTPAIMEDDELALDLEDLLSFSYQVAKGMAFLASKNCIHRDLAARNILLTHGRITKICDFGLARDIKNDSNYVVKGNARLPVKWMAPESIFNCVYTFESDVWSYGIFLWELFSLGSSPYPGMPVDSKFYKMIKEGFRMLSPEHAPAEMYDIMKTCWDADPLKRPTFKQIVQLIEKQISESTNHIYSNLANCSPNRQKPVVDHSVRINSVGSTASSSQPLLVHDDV
Put plainly: c-Kit(V654A) assay. In kind it is biochemical. The following applies: recombinant human c-Kit aa 544-end, 200 μM ATP, 1.4E-06 means 1.4×10^−6, read-out: Inhibition (IC50) of c-KIT (V654A). In a few lines:
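Radiometric filter-binding read-out: substrate 33P incorporation counted by scintillation after P30 filtermat washes in 75 mM phosphoric acid and methanol. Enzyme: N-GST recombinant human c-Kit aa 544-end carrying V654A.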

T1 sequence (P16234 550-1089 V561D): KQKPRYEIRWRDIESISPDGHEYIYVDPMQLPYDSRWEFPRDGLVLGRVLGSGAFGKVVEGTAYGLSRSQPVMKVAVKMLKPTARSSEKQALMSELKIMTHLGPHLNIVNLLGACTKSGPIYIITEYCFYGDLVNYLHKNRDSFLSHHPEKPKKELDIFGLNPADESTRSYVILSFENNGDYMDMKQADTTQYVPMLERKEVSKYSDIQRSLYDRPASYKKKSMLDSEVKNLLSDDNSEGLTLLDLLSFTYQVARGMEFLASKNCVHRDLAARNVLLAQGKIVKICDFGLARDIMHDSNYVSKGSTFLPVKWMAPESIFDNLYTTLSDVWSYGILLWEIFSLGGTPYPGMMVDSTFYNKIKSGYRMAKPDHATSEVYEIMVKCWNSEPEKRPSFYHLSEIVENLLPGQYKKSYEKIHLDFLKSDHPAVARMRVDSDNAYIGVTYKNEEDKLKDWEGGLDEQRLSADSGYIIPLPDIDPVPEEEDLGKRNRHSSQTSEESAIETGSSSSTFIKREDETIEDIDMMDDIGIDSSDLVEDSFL

As for `O=C(c1ccc(-n2cc(-c3cc4cc(Cl)ccc4[nH]c3=O)nn2)cc1)N1CCCCC1CO` (centres unmarked) [A255, 6-chloro-3-{1-[4-(2-hydroxymethyl-piperidine-1-carbonyl)-phenyl]-1H-[1,2,3]triazol-4-yl}-1H-quinolin-2-one], the IC50 is 2.6 nM on PDGFRalpha(V561D) and 22 nM on c-Kit(V654A).

Turning to `O=C1COCCN1c1ccc(-n2cc(-c3cc4ccccc4[nH]c3=O)nn2)cc1` [A25, 3-{1-[4-(3-oxo-morpholin-4-yl)-phenyl]-1H-[1,2,3]triazol-4-yl}-1H-quinolin-2-one], the IC50 was determined as 3 nM at PDGFRalpha(V561D) and 15 nM on c-Kit(V654A).

Consider `COCCCN1CCN(C(=O)c2ccc(-n3cc(-c4cc5cc(F)ccc5[nH]c4=O)nn3)cc2)CC1` [A86, 6-fluoro-3-(1-{4-[4-(3-methoxy-propyl)-piperazine-1-carbonyl]-phenyl}-1H-[1,2,3]triazol-4-yl)-1H-quinolin-2-one], for which the figures for the IC50 at PDGFRalpha(V561D) and on c-Kit(V654A) were 2 nM and 11 nM, respectively.

For `CN(C)C(=O)c1ccc(-n2cc(-c3cc4ccncc4[nH]c3=O)nn2)cc1` [A42, N,N-dimethyl-4-[4-(2-oxo-1,2-dihydro-[1,7]naphthyridin-3-yl)-[1,2,3]triazol-1-yl]-benzamide], the results for the IC50 at PDGFRalpha(V561D) and at c-Kit(V654A) were 38 nM and 84 nM, respectively.

Consider `O=C(c1ccc(-n2cc(-c3cc4cc(F)ccc4[nH]c3=O)nn2)cc1)N1C[C@H]2CNC[C@H]2C1` [A308, 6-fluoro-3-{1-[4-((cis)-hexahydro-pyrrolo[3,4-c]pyrrole-2-carbonyl)-phenyl]-1H-[1,2,3]triazol-4-yl}-1H-quinolin-2-one], for which the IC50 was 97.4 nM at PDGFRalpha(V561D) and 10 nM on c-Kit(V654A).

Consider `O=C(c1ccc(-n2cc(-c3cc4cccnc4[nH]c3=O)nn2)cc1)N1CCOCC1` [A47, 3-{1-[4-(morpholine-4-carbonyl)-phenyl]-1H-[1,2,3]triazol-4-yl}-1H-[1,8]naphthyridin-2-one], for which the IC50 on PDGFRalpha(V561D) amounted to 7 nM; at c-Kit(V654A), 24 nM.

For `COCCO[C@@H]1CCN(C(=O)c2ccc(-n3cc(-c4cc5cc(F)ccc5[nH]c4=O)cn3)cc2)C1` [A261, 6-fluoro-3-(1-{4-[(R)-3-(2-methoxy-ethoxy)-pyrrolidine-1-carbonyl]-phenyl}-1H-pyrazol-4-yl)-1H-quinolin-2-one], the IC50 on PDGFRalpha(V561D) was found to be 37 nM; on c-Kit(V654A), 44 nM.

As for `CO[C@@H]1CN(C(=O)c2ccc(-n3cc(-c4cc5cc(F)ccc5[nH]c4=O)cn3)cc2)C[C@H]1OC` [A300, 3-{1-[4-((3R,4R)-3,4-dimethoxy-pyrrolidine-1-carbonyl)-phenyl]-1H-pyrazol-4-yl}-6-fluoro-1H-quinolin-2-one], the IC50 at PDGFRalpha(V561D) stood at 0.76 nM; at c-Kit(V654A) it was 68 nM.

As to `COCCCN1CCN(C(=O)c2ccc(-n3cc(-c4cc5cc(F)cnc5[nH]c4=O)nn3)cc2)CC1` [A88, 6-fluoro-3-(1-{4-[4-(3-methoxy-propyl)-piperazine-1-carbonyl]-phenyl}-1H-[1,2,3]triazol-4-yl)-1H-[1,8]naphthyridin-2-one], the IC50 on PDGFRalpha(V561D) is 6 nM; at c-Kit(V654A), 90 nM.

As to `CCN(CC)CCN1CCN(C(=O)c2ccc(-n3cc(-c4cc5cc(F)c(F)cc5[nH]c4=O)nn3)cc2)CC1` [A189, 3-(1-{4-[4-(2-diethylamino-ethyl)-piperazine-1-carbonyl]-phenyl}-1H-[1,2,3]triazol-4-yl)-6,7-difluoro-1H-quinolin-2-one], the IC50 on PDGFRalpha(V561D) worked out at 430 nM; on c-Kit(V654A), 110 nM.

Regarding `CO[C@@H]1CCCN(C(=O)c2ccc(-n3cc(-c4cc5cc(F)c(F)cc5[nH]c4=O)nn3)cc2)C1` [A192, 6,7-difluoro-3-{1-[4-((R)-3-methoxy-piperidine-1-carbonyl)-phenyl]-1H-[1,2,3]triazol-4-yl}-1H-quinolin-2-one], the IC50 on PDGFRalpha(V561D) is 200 nM; at c-Kit(V654A), 230 nM.

For `CN1CCN(C(=O)c2cccc(-n3cc(-c4cc5cc(F)ccc5[nH]c4=O)nn3)c2)CC1` [A153, 6-Fluoro-3-{1-[3-(4-methyl-piperazine-1-carbonyl)-phenyl]-1H-[1,2,3]triazol-4-yl}-1H-quinolin-2-one], the figures for the IC50 at PDGFRalpha(V561D) and at c-Kit(V654A) were 4 nM and 24 nM, respectively.

As for `O=C(c1ccc(-n2cc(-c3cc4cc(F)ccc4[nH]c3=O)nn2)cc1)N1CCCCC1CO` (centres unmarked) [A214, 6-fluoro-3-{1-[4-(2-hydroxymethyl-piperidine-1-carbonyl)-phenyl]-1H-[1,2,3]triazol-4-yl}-1H-quinolin-2-one], the IC50 was determined as 79 nM on PDGFRalpha(V561D) and 72 nM on c-Kit(V654A).

For `O=C(c1ccc(-n2cc(-c3cc4cc(F)ccc4[nH]c3=O)nn2)cc1)N1CC[C@@H](O)C1` [A181, 6-fluoro-3-{1-[4-((R)-3-hydroxy-pyrrolidine-1-carbonyl)-phenyl]-1H-[1,2,3]triazol-4-yl}-1H-quinolin-2-one], the IC50 was 0.71 nM at PDGFRalpha(V561D) and 8.5 nM on c-Kit(V654A).

In the case of `O=C(c1ccc(-n2cc(-c3cc4cc(F)ccc4[nH]c3=O)nn2)cc1)N1CCC(CO)C1` (centres unmarked) [A206, 6-fluoro-3-{1-[4-(3-hydroxymethyl-pyrrolidine-1-carbonyl)-phenyl]-1H-[1,2,3]triazol-4-yl}-1H-quinolin-2-one], the IC50 on PDGFRalpha(V561D) is 48 nM; at c-Kit(V654A), 24 nM.

As to `CN1C[C@@H]2CN(C(=O)c3ccc(-n4cc(-c5cc6cc(F)ccc6[nH]c5=O)nn4)cc3)C[C@@H]2C1` [A327, 6-fluoro-3-{1-[4-((cis)-5-methyl-hexahydro-pyrrolo[3,4-c]pyrrole-2-carbonyl)-phenyl]-1H-[1,2,3]triazol-4-yl}-1H-quinolin-2-one], the IC50 at PDGFRalpha(V561D) stood at 220 nM; on c-Kit(V654A), 14 nM.

As for `COC1CCN(C(=O)c2ccc(-n3cc(-c4cc5cc(F)ccc5[nH]c4=O)nn3)cc2)CC1` [A190, 6-fluoro-3-{1-[4-(4-methoxy-piperidine-1-carbonyl)-phenyl]-1H-[1,2,3]triazol-4-yl}-1H-quinolin-2-one], the values for the IC50 on PDGFRalpha(V561D) and on c-Kit(V654A) were 64 nM and 9.7 nM, respectively.

Take `O=c1[nH]c2ccccc2cc1-c1cn(-c2ccc(N3CCCNCC3)cc2)nn1` [A55, 3-[1-(4-[1,4]diazepan-1-yl-phenyl)-1H-[1,2,3]triazol-4-yl]-1H-quinolin-2-one]: the 50% inhibitory concentration (IC50) at PDGFRalpha(V561D) and at c-Kit(V654A) was 14 nM each time.

On to `CC(=O)N(C)c1ccc(-n2cc(-c3cc4cc(F)ccc4[nH]c3=O)nn2)cc1` [A353, N-{4-[4-(6-fluoro-2-oxo-1,2-dihydro-quinolin-3-yl)-[1,2,3]triazol-1-yl]-phenyl}-N-methyl-acetamide], for which the IC50 on PDGFRalpha(V561D) was determined as 190 nM; on c-Kit(V654A) it was 94 nM.

For `CN[C@@H]1CCN(C(=O)c2ccc(-n3cc(-c4cc5cc(F)ccc5[nH]c4=O)nn3)cc2)C1` [A311, 6-Fluoro-3-{1-[4-((R)-3-methylamino-pyrrolidine-1-carbonyl)-phenyl]-1H-[1,2,3]triazol-4-yl}-1H-quinolin-2-one hydrochloride], the values for the concentration for half-maximal inhibition (IC50) on PDGFRalpha(V561D) and on c-Kit(V654A) were 310 nM and 21 nM, respectively.

For `O=C(c1ccc(-n2cc(-c3cc4c(F)cc(F)cc4[nH]c3=O)nn2)cc1)N1CCOCC1` [A90, 5,7-difluoro-3-{1-[4-(morpholine-4-carbonyl)-phenyl]-1H-[1,2,3]triazol-4-yl}-1H-quinolin-2-one], the IC50 was determined as 29 nM on PDGFRalpha(V561D) and 20 nM at c-Kit(V654A).

For the compound `CN1CCN(c2ccc(-n3cc(-c4cc5ccccc5[nH]c4=O)nn3)cc2)C(=O)C1` [A68, 3-{1-[4-(4-methyl-2-oxo-piperazin-1-yl)-phenyl]-1H-[1,2,3]triazol-4-yl}-1H-quinolin-2-one], the figures for the concentration for half-maximal inhibition (IC50) on PDGFRalpha(V561D) and at c-Kit(V654A) were 7 nM and 28 nM, respectively.

`O=C(c1ccc(-n2cc(-c3cc4cc(F)c(F)cc4[nH]c3=O)nn2)cc1)N1C[C@H]2CNC[C@H]2C1` [A307, 6,7-difluoro-3-{1-[4-((cis)-hexahydro-pyrrolo[3,4-c]pyrrole-2-carbonyl)-phenyl]-1H-[1,2,3]triazol-4-yl}-1H-quinolin-2-one]: the IC50 was determined as 240 nM on PDGFRalpha(V561D) and 17 nM on c-Kit(V654A).

With `O=c1[nH]c2ccccc2cc1-c1cn(-c2ccc(F)cc2)nn1` [A12, 3-[1-(4-fluoro-phenyl)-1H-[1,2,3]triazol-4-yl]-1H-quinolin-2-one], the IC50 at PDGFRalpha(V561D) was 63 nM; on c-Kit(V654A), 69 nM.

Consider `CCN(CC)[C@@H]1CCCN(C(=O)c2ccc(-n3cc(-c4cc5cc(F)ccc5[nH]c4=O)nn3)cc2)C1` [A338, 3-{1-[4-((R)-3-diethylamino-piperidine-1-carbonyl)-phenyl]-1H-[1,2,3]triazol-4-yl}-6-fluoro-1H-quinolin-2-one], for which the IC50 at PDGFRalpha(V561D) amounted to 160 nM; on c-Kit(V654A), 39 nM.

Regarding `O=c1[nH]c2ccc(F)cc2cc1-c1cn(-c2ccc(OCCCN3CCNCC3)cc2)nn1` [A131, 6-fluoro-3-{1-[4-(3-piperazin-1-yl-propoxy)-phenyl]-1H-[1,2,3]triazol-4-yl}-1H-quinolin-2-one], the half-inhibitory concentration (IC50) is 38 nM on PDGFRalpha(V561D) and 9.7 nM on c-Kit(V654A).

Take `CN1CC[C@H](Oc2ccc(-n3cc(-c4cc5cc(Cl)ccc5[nH]c4=O)nn3)cc2)C1` [A368, 6-chloro-3-{1-[4-((S)-1-methyl-pyrrolidin-3-yloxy)-phenyl]-1H-[1,2,3]triazol-4-yl}-1H-quinolin-2-one]: the IC50 was 34 nM at PDGFRalpha(V561D) and 23 nM at c-Kit(V654A).

As to `O=C(c1cccc(-n2cc(-c3cc4ccccc4[nH]c3=O)nn2)c1)N1CCOCC1` [A76, 3-{1-[3-(morpholine-4-carbonyl)-phenyl]-1H-[1,2,3]triazol-4-yl}-1H-quinolin-2-one], the IC50 on PDGFRalpha(V561D) was found to be 30 nM; at c-Kit(V654A) it was 49 nM.
